This data set in a line: Solubility of the compound in PGMEA (safe solvent). As to conditions: 23° C.; for solubility in PGMEA (amount of dissolution): ultrasonic waves 30 minutes, visual observation. The protocol:
The solubility of the obtained compound in propylene glycol monomethyl ether acetate (PGMEA) was measured as the solubility of the compound in a safe solvent. The solubility was evaluated according to the following criteria utilizing the amount of dissolution in PGMEA. The amount of dissolution in PGMEA was measured at 23° C. by precisely weighing the compound into a test tube, adding PGMEA so as to attain a predetermined concentration, applying ultrasonic waves for 30 minutes in an ultrasonic cleaner, then visually observing the subsequent state of the fluid, and conducting evaluation on the basis of the concentration of the amount of complete dissolution.
A: 5.0% by mass<Amount of dissolution
B: 3.0% by mass<Amount of dissolution<5.0% by mass
C: Amount of dissolution<3.0% by mass

Molecules are shown by their SMILES.

Turning to `Oc1ccc([Te](Cl)(Cl)c2ccc(O)cc2)cc1` [BHPT, bis(4-hydroxyphenyl)tellurium dichloride], the “solubility in PGMEA, evaluation” value is on record as “A (5.0% by mass<Amount of dissolution)” and the “solubility in PGMEA (amount of dissolution)” value is recorded as no less than 5 % by mass.
The like results for `CC1(OC(=O)COc2ccc([Te](Cl)(Cl)c3ccc(OCC(=O)OC4(C)C5CC6CC(C5)CC4C6)cc3)cc2)C2CC3CC(C2)CC1C3` (stereo not shown) [BHPT-ADBAC, bis(4-(2-methyl-2-adamantyloxycarbonylmethoxy)phenyl)tellurium dichloride] were, in that order, “A (5.0% by mass<Amount of dissolution)” and no less than 5 % by mass.
Consider `CC(C)(C)OC(=O)Oc1ccc([Te](Cl)(Cl)c2ccc(OC(=O)OC(C)(C)C)cc2)cc1` [BHPT-BOC, bis(tert-butoxycarboxyphenyl)tellurium dichloride], for which the “solubility in PGMEA, evaluation” value is reported as “A (5.0% by mass<Amount of dissolution)” and the “solubility in PGMEA (amount of dissolution)” value is given as no less than 5 % by mass.
For the compound `CCOC(C)Oc1ccc([Te](Cl)(Cl)c2ccc(OC(C)OCC)cc2)cc1` (stereo not shown) [BHPT-EE, bis(ethoxyethylphenyl)tellurium dichloride], the “solubility in PGMEA, evaluation” value is reported as “A (5.0% by mass<Amount of dissolution)” and the “solubility in PGMEA (amount of dissolution)” value was no less than 5 % by mass.
As to `Oc1ccc([Te](Cl)(Cl)c2ccc(O)cc2O)cc1` [CCHT, (2,4-dihydroxyphenyl) (4-hydroxyphenyl)tellurium dichloride], the “solubility in PGMEA, evaluation” value is reported as “A (5.0% by mass<Amount of dissolution)” and the “solubility in PGMEA (amount of dissolution)” value is reported as no less than 5 % by mass.
As to `CC1(OC(=O)COc2ccc([Te](Cl)(Cl)c3ccc(OCC(=O)OC4(C)C5CC6CC(C5)CC4C6)cc3OCC(=O)OC3(C)C4CC5CC(C4)CC3C5)cc2)C2CC3CC(C2)CC1C3` (stereo not shown) [CCHT-ADBAC], the “solubility in PGMEA, evaluation” value is listed as “A (5.0% by mass<Amount of dissolution)” and the “solubility in PGMEA (amount of dissolution)” value is no less than 5 % by mass.
Turning to `Oc1ccc([Te](Cl)(Cl)c2ccc(O)c(-c3ccccc3)c2)cc1-c1ccccc1` [Ph-BHPT, bis(3-phenyl-4-hydroxyphenyl)tellurium dichloride], the “solubility in PGMEA, evaluation” value is recorded as “A (5.0% by mass<Amount of dissolution)” and the “solubility in PGMEA (amount of dissolution)” value is listed as no less than 5 % by mass.
Regarding `CC1(OC(=O)COc2ccc([Te](Cl)(Cl)c3ccc(OCC(=O)OC4(C)C5CC6CC(C5)CC4C6)c(-c4ccccc4)c3)cc2-c2ccccc2)C2CC3CC(C2)CC1C3` (stereo not shown) [Ph-BHPT-ADBAC], the “solubility in PGMEA, evaluation” value is “A (5.0% by mass<Amount of dissolution)” and the “solubility in PGMEA (amount of dissolution)” value is on record as no less than 5 % by mass.
`Oc1ccc([Te]c2ccc(O)c(-c3ccccc3)c2)cc1-c1ccccc1` [Ph-TDP, bis(3-phenyl-4-hydroxyphenyl)tellurium]: the “solubility in PGMEA, evaluation” value is given as “A (5.0% by mass<Amount of dissolution)” and the “solubility in PGMEA (amount of dissolution)” value was no less than 5 % by mass.
For `CC1(OC(=O)COc2ccc([Te]c3ccc(OCC(=O)OC4(C)C5CC6CC(C5)CC4C6)c(-c4ccccc4)c3)cc2-c2ccccc2)C2CC3CC(C2)CC1C3` (stereo not shown) [Ph-TDP-ADBAC], the “solubility in PGMEA, evaluation” value was “A (5.0% by mass<Amount of dissolution)” and the “solubility in PGMEA (amount of dissolution)” value was no less than 5 % by mass.
The like results for `CC(C)(C)OC(=O)COc1ccc([Te]c2ccc(OCC(=O)OC(C)(C)C)c(-c3ccccc3)c2)cc1-c1ccccc1` [Ph-TDP-BOC] were, in that order, “A (5.0% by mass<Amount of dissolution)” and no less than 5 % by mass.
`CCOC(C)Oc1ccc([Te](Cl)(Cl)c2ccc(OC(C)OCC)c(-c3ccccc3)c2)cc1-c1ccccc1` (stereo not shown) [Ph-TDP-EE]: the “solubility in PGMEA, evaluation” value is “A (5.0% by mass<Amount of dissolution)” and the “solubility in PGMEA (amount of dissolution)” value is given as no less than 5 % by mass.
With `Oc1ccc([Te]c2ccc(O)cc2)cc1` [TDP, 4,4′-telluriumdiphenol], the “solubility in PGMEA, evaluation” value is “A (5.0% by mass<Amount of dissolution)” and the “solubility in PGMEA (amount of dissolution)” value is listed as no less than 5 % by mass.
Regarding `CC1(OC(=O)COc2ccc([Te]c3ccc(OCC(=O)OC4(C)C5CC6CC(C5)CC4C6)cc3)cc2)C2CC3CC(C2)CC1C3` (stereo not shown) [TDP-ADBAC], the “solubility in PGMEA, evaluation” value is on record as “A (5.0% by mass<Amount of dissolution)” and the “solubility in PGMEA (amount of dissolution)” value is recorded as no less than 5 % by mass.

The record behind these values is patent US20200249573A1, “COMPOSITION FOR RESIST UNDERLAYER FILM FORMATION, UNDERLAYER FILM FOR LITHOGRAPHY, AND PATTERN FORMATION METHOD” (MITSUBISHI GAS CHEMICAL COMPANY, INC., priority 2016, published 2020).
